These results are taken from US20250109141A1, “BRD4 PROTEIN DEGRADER COMPOUND, AND PREPARATION METHOD AND USE THEREOF” (Miracure Biotechnology Limited, priority 2023, published 2025).

Structures are written as SMILES. Where two headings read alike, the source gives them in different places.

What is called IC50 is the midpoint of a concentration-inhibition curve.

The test system of assay [1] is 22RV1. Briefly: Cell proliferation assay (CellTiterGlo, 72 h), 22RV1. The assay is classed as cell-based. As to conditions: Homo sapiens, read-out: 22Rv1 ATP average IC50. How it is done:
All incubations were performed at 37° C. in a humidified carbon dioxide incubator.
(§1) The cells were seeded in a 96-well plate (white wall/transparent bottom) at 5000 cells/well and cultured overnight.
(§2) On day 2, A stock solution of the compound at a concentration of 10 mM was subjected to an 8-fold serial dilution to obtain 8 concentration points. 2 μL of the compound solution at each concentration point was added to 98 μL of fresh medium, and the mixture was mixed homogeneously. Then, 5 μL of the compound solution diluted in the medium at each concentration point was added to 100 μL of overnight medium containing the cells, and 2 replicates were set for each concentration. The mixture was cultured for 72 h.
(§3) After 72 h of compound treatment, the plate was equilibrated to room temperature, 100 μL of CellTiterGlo (Promega) was added. The mixture was mixed homogeneously for 2 min, left to stand at room temperature for 10 min, and then read for luminescence values on a SpectraMax M5 microplate reader to evaluate cell viability. The positive control was 1% Tween-20 and the negative control was 0.1% DMSO. IC50 was generated by 4-parameter non-linear regression fitting in GraphPad Prism.
Background: In ATP-based viability assays light output follows the ATP content of the culture.

The test system of assay [2] is LNCaP. Briefly: Cell proliferation assay (CellTiterGlo, 72 h), LNCaP. The assay is classed as cell-based. Particulars: Homo sapiens, LNCap cells, 72 h compound treatment, read-out: LNCap ATP average IC50. How it is done:
The cell line used was 22RV1 or LNCaP, and the medium was RPMI-1640 containing 10% FBS and antibiotics. All incubations were performed at 37° C. in a humidified carbon dioxide incubator.
On day 1, cells were digested with 0.25% trypsin (containing EDTA) and collected by centrifugation.
as §1, §2, §3

[3] abbreviates: 22Rv1 cells, 72 h compound treatment, CellTiterGlo.

Regarding `Cc1sc2c(c1C)C(c1ccc(-c3ccc(N)cc3)cc1)=NC(CC(=O)OC(C)(C)C)c1nnc(C)n1-2` (centres unmarked) [Compound 9086], the IC50 in assay [1] (setting [3]) and in assay [2] was 200 to 500 nM each time.

Regarding `Cc1sc2c(c1C)C(c1ccc(-c3cccc(N)c3)cc1)=NC(CC(=O)OC(C)(C)C)c1nnc(C)n1-2` (centres unmarked) [Compound 9087], the half-maximal inhibitory concentration (IC50) in assay [1] (setting [3]) is above 500 nM; in assay [2], 200 to 500 nM.

For `Cc1sc2c(c1C)C(c1ccc(N3CC(=NO)C3)cc1)=N[C@@H](CC(=O)OC(C)(C)C)c1nnc(C)n1-2` [Compound 9090], the IC50 in assay [1] (setting [3]) was above 500 nM; in assay [2], 50 to 200 nM.

Regarding `Cc1sc2c(c1C)C(c1ccc(C#CCN)cc1)=N[C@@H](CCOC(=O)C(C)(C)C)c1nnc(C)n1-2` [Compound 9091], the IC50 in assay [1] (22Rv1, 72 h) was in the range of 50 to 200 nM; in assay [2], 200 to 500 nM.

`CC(=O)NOC/C=C/c1ccc(C2=N[C@@H](CC(=O)OC(C)(C)C)c3nnc(C)n3-c3sc(C)c(C)c32)cc1` [Compound 9094]: the IC50 in assay [1] (setting [3]) and in assay [2] was 50 to 200 nM in each case.

For `Cc1noc2c1-c1ccccc1C(c1ccc(/C=C/CNO)cc1)=N[C@H]2CC(=O)OC(C)(C)C` [Compound 9095], the IC50 in assay [1] (setting [3]) and in assay [2] was 50 to 200 nM each time.

On to `CONC/C=C/c1ccc(C2=N[C@@H](CC(=O)OC(C)(C)C)c3onc(C)c3-c3ccccc32)cc1` [Compound 9097], for which the IC50 in assay [1] (setting [3]) and in assay [2] was above 500 nM throughout.

`Cc1noc2c1-c1ccccc1C(c1ccc(C#CCN)cc1)=N[C@H]2CC(=O)OC(C)(C)C` [Compound 9098]: the IC50 in assay [1] (setting [3]) and in assay [2] was above 500 nM throughout.

Regarding `Cc1sc2c(c1C)C(c1ccc(/C=C/CNC(=N)N)cc1)=N[C@@H](CC(=O)OC(C)(C)C)c1nnc(C)n1-2` [Compound 9110], the IC50 in assay [1] (setting [3]) and in assay [2] was above 500 nM each time.

For `COC(=O)C=Cc1ccc(C2=N[C@@H](CC(=O)OC(C)(C)C)c3nnc(C)n3-c3sc(C)c(C)c32)cc1` [Compound 9118], the IC50 in assay [1] (setting [3]) was 200 to 500 nM; in assay [2], below 50 nM.

On to `Cc1noc2c1-c1ccccc1C(c1ccc(/C=C/CN)cc1)=N[C@H]2CC(=O)OC(C)(C)C` [Compound 9122], for which the IC50 in assay [1] (setting [3]) was above 500 nM; in assay [2] it was 50 to 200 nM.

On to `Cc1sc2c(c1C)C(c1ccc(C3CC3CNO)cc1)=N[C@@H](CC(=O)OC(C)(C)C)c1nnc(C)n1-2` (some centres unmarked) [Compound 9123], for which the IC50 in assay [1] (setting [3]) and in assay [2] was below 50 nM throughout.

For the compound `Cc1sc2c(c1C)C(c1ccc(C3CC3CN)cc1)=N[C@@H](CC(=O)OC(C)(C)C)c1nnc(C)n1-2` (some centres unmarked) [Compound 9138], the IC50 in assay [1] (setting [3]) and in assay [2] was above 500 nM each time.

With `Cc1noc2c1-c1ccccc1C(c1ccc(C#CCN)cc1)=N[C@H]2Cc1nccs1` [Compound 9141], the IC50 in assay [1] (setting [3]) and in assay [2] was above 500 nM throughout.

With `CC(=O)ONC/C=C/c1ccc(C2=N[C@@H](CC(=O)OC(C)(C)C)c3nnc(C)n3-c3sc(C)c(C)c32)cc1` [Compound 9144], the IC50 in assay [1] (setting [3]) and in assay [2] was below 50 nM throughout.

As for `COC(=O)C[C@@H]1N=C(c2ccc(Cl)cc2)c2c(sc(C(=O)NCCOCCNC(=O)C[C@@H]3N=C(c4ccc(C#CCN)cc4)c4c(sc(C)c4C)-n4c(C)nnc43)c2C)-n2c(C)nnc21` [Compound 9157], the IC50 in assay [1] (setting [3]) and in assay [2] was 200 to 500 nM each time.

In the case of `COc1ccc2c(c1)C(c1ccc(C#CCNC(=N)N)cc1)=N[C@@H](CC(=O)OC(C)(C)C)c1nnc(C)n1-2` [Compound 9159], the IC50 is above 500 nM in assay [1] (22Rv1, 72 h) and above 500 nM in assay [2].

As to `Cc1sc2c(c1C)C(c1ccc(/C=C/CN)cc1)=N[C@@H](Cc1nnc(C(C)C)o1)c1nnc(C)n1-2` [Compound 9168], the IC50 in assay [1] (setting [3]) and in assay [2] was below 50 nM each time.

In the case of `Cc1sc2c(c1C)C(c1ccc(/C=C/CNS(C)(=O)=O)cc1)=N[C@@H](CC(=O)OC(C)(C)C)c1nnc(C)n1-2` [Compound 9200], the IC50 in assay [1] (setting [3]) and in assay [2] was 50 to 200 nM throughout.
